Measured values taken from patent US20200016200A1, “MODULATING CYTOTOXIC CELL LYTIC GRANULE POSITIONING TO PROMOTE DIFFUSE KILLING IN CELLULAR THERAPIES” (Baylor College of Medicine, priority 2016, published 2020).

Assays:
[1] = tested on: NK92 cells; experiment: Lytic granule convergence, fixed cell confocal microscopy (granule to MTOC distance); assay type: cell-based, human; details: NK92 conjugated with K562 target cells; ciliobrevin D 100 μM vs vehicle
Excerpt: (§1) In previous studies, it was shown that granule convergence is dynein-dependent (Mentlik et al., 2010). To further characterize this, regarding the role for convergence in promoting killing efficiency and protecting bystanders, a small molecule dynein inhibitor ciliobrevin D (Firestone et al., 2012) was used to try and block the convergence of lytic granules to the MTOC from their dispersed localization in the cytoplasm. This would allow us to manipulate granule trafficking via blocking the motor protein function, instead of altering activating signal input. YTS, NK92 or eNK cells were treated with either ciliobrevin D or vehicle and conjugated with their respective target cells. […] As a separate measure of granule dispersion, the standard deviation of the granule to MTOC distance was calculated to show the degree of scatter of individual lytic granules. […] CD107a staining was additionally performed to test whether ciliobrevin D treatment affected the exocytosis of lytic granules; the proportion of eNK cells that degranulated after treatment with ciliobrevin D increased (FIG. 13A), whereas in the NK cell lines it decreased (FIG. 13B-13C). In all cases, however, degranulation still occurred in the presence of ciliobrevin D. […]
(§2) Raw image sequences were analyzed using Volocity software. For lytic granules, the centroid of individual lytic granule was designated automatically based on the fluorescence intensity of the corresponding staining (LysoTracker Red or perforin) (Mentlik et al., 2010). For MTOC, in fixed-cell confocal experiments, the point with the highest fluorescence intensity of α-tubulin staining was denoted as the localization of MTOC; in live-cell experiments, the geometric centroid of all the lytic granules in the cell was used to provide a measure of proximity of lytic granule regions. Lytic granule convergence to the MTOC or to the centroid of all granules was measured as previously described (Mentlik et al., 2010). […]

[2] = tested on: YTS cells; experiment: as above; assay type: cell-based, human; details: YTS conjugated with 721.221 target cells; ciliobrevin D 100 μM vs vehicle
Excerpt: as §1, §2

[3] = tested on: eNK cells; experiment: as above; assay type: cell-based, human; details: eNK conjugated with K562 target cells; ciliobrevin D 100 μM vs vehicle
Excerpt: as §1, §2

[4] = tested on: CD19 CAR-bearing NK cells; experiment: Live cell confocal microscopy of lytic granule positioning (LysoTracker Red); assay type: cell-based; details: ciliobrevin D 50 μM vs DMSO, straight out of culture or 0.5 h post cytokine (IL-2) re-addition
Description: (§3) FIG. 19. […] Live cell confocal microscopy of CD19 CAR-bearing NK cells treated with DMSO or ciliobrevin D (50 μM). Lytic granule positioning was tracked using LysoTracker Red. […] The culture medium for CD19 CAR NK cells contains IL-2. […] Quantitative analyses of lytic granule distance from the MTOC are shown as a feature of the degree of granule convergence in CD19 CAR-bearing T cells.
(§4) Specifically, the inventors have shown convergence in CD19 CAR T cells, CD19 CAR NK cells, PSCA CAR T cells, GD2 CAR NKT cells, HER2 CART cells, and glypican CAR T cells (FIG. 15A). Using a measurement of mean granule distance from the MTOC, CAR cells have varying degrees of converged lytic granules (FIG. 15B).

[5] = tested on: GD2 CAR-bearing T cells; experiment: as above; assay type: cell-based; details: ciliobrevin D 50 μM vs DMSO, straight out of culture or 0.5 h post cytokine (IL-7, IL-15) re-addition
Description: as §3, with “20.” for “19.”, “GD2” for “CD19”, “T” for “NK”, “IL-7 and IL-15.” for “IL-2.”
as §4

**Q.** For N#CC(C(=O)c1ccc(Cl)cc1Cl)=C1NC(=O)c2ccc(Cl)cc2N1 [ciliobrevin D, 2-(7-chloro-4-oxo-3,4-dihydroquinazolin-2(1H)-ylidene)-3-(2,4-dichlorophenyl)-3-oxopropanenitrile], which “lytic granule convergence as determined by mean granule to MTOC distance” value (“lytic granule convergence as determined” below) [1] is on record?
**A.** Its value is “blocked lytic granule convergence”.

**Q.** And the “lytic granule convergence as determined” value [2]?
**A.** Its value is “blocked lytic granule convergence”.

**Q.** What about the “lytic granule convergence as determined” value [3] of the same compound?
**A.** The value was “blocked lytic granule convergence”.

**Q.** What about the “stimulation-induced lytic granule convergence” value [4] of the same compound?
**A.** The value was “blocks stimulation-induced convergence”.

**Q.** What about the “stimulation-induced lytic granule convergence” value ([4]; listed as Ciliobrevin D) of the same compound?
**A.** Its value is “dispersed lytic granules”.

**Q.** What about the “stimulation-induced lytic granule convergence” value [5] of the same compound?
**A.** The value was “blocks stimulation-induced convergence”.

**Q.** What about the “stimulation-induced lytic granule convergence” value ([5]; listed as Ciliobrevin D) of the same compound?
**A.** The value was “dispersed lytic granules”.
